# Results reported in patent US20260347364A1, “PYRAZOLO[4,3-F]QUINAZOLINE DERIVATIVES AS MODULATORS OF G12D MUTANT KRAS USEFUL FOR THE TREATMENT OF CANCER” (JAZZ PHARMACEUTICALS IRELAND LTD., priority 2023, published 2026).
# Assays:
# KRAS G12D = target: T1, KRAS G12D (Homo sapiens, UniProt P01116, G12D); assay: HTRF nucleotide exchange assay, KRAS G12D; type: biochemical; conditions: class symbols; for IC50: HTRF nucleotide exchange assay (NEA)
# T1 construct: aa1-188 KRAS WT, HRAS WT, NRAS WT, or KRAS containing the G12D
# KRAS WT = target: T2, KRAS WT (Homo sapiens, UniProt P01116); assay: HTRF nucleotide exchange assay, KRAS WT; type: biochemical; conditions: class symbols; for IC50: HTRF nucleotide exchange assay (NEA)
# T2 construct: aa1-188 KRAS WT
SMILES,IC50 (KRAS G12D) [nM],IC50 (KRAS WT) [nM],KRAS^G12D NEA (KRAS G12D),KRAS^WT NEA (KRAS WT)
"CCc1c(F)ccc2cc(O)cc(-c3c(F)c4nc(OCC5(CN6CCOCC6)CC5)nc(N5CCOCC(C)(O)C5)c4c4cn(C)nc34)c12 (stereo not shown) [Example 162, 4-[4-(8-ethyl-7-fluoro-3-hydroxy-1-naphthyl)-5-fluoro-2-methyl-7-[[1-(morpholinomethyl)cyclopropyl]methoxy]pyrazolo[4,3-f]quinazolin-9-yl]-6-methyl-1,4-oxazepan-6-ol]",≤ 10,≤ 10,–,–
"CCc1c(F)ccc2cc(O)cc(-c3cc4nc(OC[C@@]56CCCN5C[C@H](F)C6)nc(N5CCOC(CO)C5)c4c4cn(C)nc34)c12 (stereo partly drawn) [Example 115, 5-ethyl-6-fluoro-4-[9-[2-(hydroxymethyl)morpholin-4-yl]-2-methyl-7-[[(2R,8S)-2-fluoro-1,2,3,5,6,7-hexahydropyrrolizin-8-yl]methoxy]pyrazolo[4,3-f]quinazolin-4-yl]naphthalen-2-ol]",≤ 10,≤ 10,–,–
"Cn1cc2c(n1)c(-c1ccc(F)c3sc(N)c(C#N)c13)cc1nc(OC[C@@]34CCCN3C[C@H](F)C4)nc(N3C4CCC3CN(CCCO)C4)c12 [Example 90, 2-amino-7-fluoro-4-[7-[[(2R,8S)-2-fluoro-1,2,3,5,6,7-hexahydropyrrolizin-8-yl]methoxy]-9-[3-(3-hydroxypropyl)-3,8-diazabicyclo[3.2.1]octan-8-yl]-2-methyl-pyrazolo[4,3-f]quinazolin-4-yl]benzothiophene-3-carbonitrile]",–,–,D (<49% inhibition at 10 μM),D (<49% inhibition at 10 μM)
"CCc1c(F)ccc2cc(O)cc(-c3cc4nc(OC[C@@]56CCCN5C[C@H](F)C6)nc(N5CCCCC(C)(O)C5)c4c4cn(C)nc34)c12 (stereo partly drawn) [Example 10, 1-[4-(8-ethyl-7-fluoro-3-hydroxy-1-naphthyl)-2-methyl-7-[[(2R,8S)-2-fluoro-1,2,3,5,6,7-hexahydropyrrolizin-8-yl]methoxy]pyrazolo[4,3-f]quinazolin-9-yl]-3-methyl-azepan-3-ol]",≤ 10,≤ 10,–,–
"CCc1c(F)ccc2cc(O)cc(-c3cc4nc(OCC56CCCN5CCC6)nc(N5CCCC(C)(O)CC5)c4c4cn(C)nc34)c12 (stereo not shown) [Example 27, 1-[4-(8-ethyl-7-fluoro-3-hydroxy-1-naphthyl)-7-(1,2,3,5,6,7-hexahydropyrrolizin-8-ylmethoxy)-2-methyl-pyrazolo[4,3-f]quinazolin-9-yl]-4-methyl-azepan-4-ol]",100 to 10000,100 to 10000,–,–
"CCc1c(F)ccc2cc(O)cc(-c3cc4nc(OC[C@@]56CCCN5C[C@H](F)C6)nc(N5CCC(O)C(F)(F)CC5)c4c4cn(C)nc34)c12 (stereo partly drawn) [Example 126, 1-[4-(8-ethyl-7-fluoro-3-hydroxy-1-naphthyl)-2-methyl-7-[[(2R,8S)-2-fluoro-1,2,3,5,6,7-hexahydropyrrolizin-8-yl]methoxy]pyrazolo[4,3-f]quinazolin-9-yl]-5,5-difluoro-azepan-4-ol]",10 to 100,10 to 100,–,–
"CCc1c(F)ccc2cc(O)cc(-c3c(F)c4nc(OC[C@@]56CCCN5C[C@H](F)C6)cc(N5CCCOCC5)c4c4cn(C)nc34)c12 [Example 45, 5-ethyl-6-fluoro-4-[5-fluoro-2-methyl-9-(1,4-oxazepan-4-yl)-7-[[(2R,8S)-2-fluoro-1,2,3,5,6,7-hexahydropyrrolizin-8-yl]methoxy]pyrazolo[4,3-f]quinolin-4-yl]naphthalen-2-ol]",100 to 10000,100 to 10000,–,–
"Cc1cc2[nH]ncc2c(-c2cc3nc(OC[C@@]45CCCN4C[C@H](F)C5)nc(N4CCCn5nc(C(=O)N(C)C)cc5C4)c3c3cn(C)nc23)c1C(F)(F)F [Example 84, 5-[7-[[(2R,8S)-2-fluoro-1,2,3,5,6,7-hexahydropyrrolizin-8-yl]methoxy]-2-methyl-4-[6-methyl-5-(trifluoromethyl)-1H-indazol-4-yl]pyrazolo[4,3-f]quinazolin-9-yl]-N,N-dimethyl-4,6,7,8-tetrahydropyrazolo[1,5-a][1,4]diazepine-2-carboxamide]",≤ 10,10 to 100,–,–
"CCc1c(F)ccc2cc(O)cc(-c3c(F)c4nc(OCC5(CF)COC5)nc(N5CCCn6nc(C(=O)N(C)C)cc6C5)c4c4cn(C)nc34)c12 [Example 206, 5-[4-(8-ethyl-7-fluoro-3-hydroxy-1-naphthyl)-5-fluoro-7-[[3-(fluoromethyl)oxetan-3-yl]methoxy]-2-methyl-pyrazolo[4,3-f]quinazolin-9-yl]-N,N-dimethyl-4,6,7,8-tetrahydropyrazolo[1,5-a][1,4]diazepine-2-carboxamide]",≤ 10,10 to 100,–,–
"CCc1c(F)ccc2cc(O)cc(-c3c(F)c4nc(OC[C@@H]5CCN5C)nc(N5CCOCC(C)(O)C5)c4c4cn(C)nc34)c12 (stereo partly drawn) [Example 158, 4-[4-(8-ethyl-7-fluoro-3-hydroxy-1-naphthyl)-5-fluoro-2-methyl-7-[[(2S)-1-methylazetidin-2-yl]methoxy]pyrazolo[4,3-f]quinazolin-9-yl]-6-methyl-1,4-oxazepan-6-ol]",≤ 10,≤ 10,–,–
"CCc1c(F)ccc2cc(O)cc(-c3cc4nc(OC[C@@]56CCCN5C[C@H](F)C6)nc(N5CCCn6nc(CN(C)C)cc6C5)c4c4cn(C)nc34)c12 [Example 102, 4-[9-[2-[(dimethylamino)methyl]-4,6,7,8-tetrahydropyrazolo[1,5-a][1,4]diazepin-5-yl]-2-methyl-7-[[(2R,8S)-2-fluoro-1,2,3,5,6,7-hexahydropyrrolizin-8-yl]methoxy]pyrazolo[4,3-f]quinazolin-4-yl]-5-ethyl-6-fluoro-naphthalen-2-ol]",≤ 10,10 to 100,–,–
"Cn1cc2c(n1)c(-c1ncc(F)c3sc(N)c(C#N)c13)cc1nc(OC[C@@]34CCCN3C[C@H](F)C4)nc(N3CCOCC(C)(O)C3)c12 (stereo partly drawn) [Example 107, 2-amino-7-fluoro-4-[7-[[(2R,8S)-2-fluoro-1,2,3,5,6,7-hexahydropyrrolizin-8-yl]methoxy]-9-(6-hydroxy-6-methyl-1,4-oxazepan-4-yl)-2-methyl-pyrazolo[4,3-f]quinazolin-4-yl]thieno[3,2-c]pyridine-3-carbonitrile]",–,–,D (<49% inhibition at 10 μM),D (<49% inhibition at 10 μM)
"CCc1c(F)ccc2cc(O)cc(-c3c(C)c4nc(OCC56CCCN5CCC6)nc(N5CCOCC(C)(O)C5)c4c4cn(C)nc34)c12 (stereo not shown) [Example 147, 4-[4-(8-ethyl-7-fluoro-3-hydroxy-1-naphthyl)-7-(1,2,3,5,6,7-hexahydropyrrolizin-8-ylmethoxy)-2,5-dimethyl-pyrazolo[4,3-f]quinazolin-9-yl]-6-methyl-1,4-oxazepan-6-ol]",≤ 10,≤ 10,–,–
"CCc1c(F)ccc2cc(O)cc(-c3c(F)c4nc(OCC56CCCN5CC(=C(F)F)C6)nc(N5CCOCC(C)(O)C5)c4c4cn(C)nc34)c12 (stereo not shown) [Example 235, 4-[7-[[6-(difluoromethylene)-2,3,5,7-tetrahydro-1H-pyrrolizin-8-yl]methoxy]-4-(8-ethyl-7-fluoro-3-hydroxy-1-naphthyl)-5-fluoro-2-methyl-pyrazolo[4,3-f]quinazolin-9-yl]-6-methyl-1,4-oxazepan-6-ol]",≤ 10,≤ 10,–,–
"CN(C)C(=O)c1cc2n(n1)CCCN(c1nc(OC[C@@]34CCCN3C[C@H](F)C4)nc3cc(-c4ccc(F)c5sc(N)c(C#N)c45)c4nn(C)cc4c13)C2 [Example 81, 5-[4-(2-amino-3-cyano-7-fluoro-benzothiophen-4-yl)-7-[[(2R,8S)-2-fluoro-1,2,3,5,6,7-hexahydropyrrolizin-8-yl]methoxy]-2-methyl-pyrazolo[4,3-f]quinazolin-9-yl]-N,N-dimethyl-4,6,7,8-tetrahydropyrazolo[1,5-a][1,4]diazepine-2-carboxamide]",≤ 10,10 to 100,–,–
"CCc1c(F)ccc2cc(O)cc(-c3c(C)c4nc(OCC5(C)CC(OC)CN5)nc(N5CCOCC(C)(O)C5)c4c4cn(C)nc34)c12 (stereo not shown) [Example 137, 4-[4-(8-ethyl-7-fluoro-3-hydroxy-1-naphthyl)-7-[(4-methoxy-2-methyl-pyrrolidin-2-yl)methoxy]-2,5-dimethyl-pyrazolo[4,3-f]quinazolin-9-yl]-6-methyl-1,4-oxazepan-6-ol]",≤ 10,≤ 10,–,–
"CCc1c(F)ccc2cc(O)cc(-c3cc4nc(OC[C@@]56CCCN5C[C@H](F)C6)nc(N5C6CCC5CN(CCCO)C6)c4c4cn(C)nc34)c12 [Example 89, 5-ethyl-6-fluoro-4-[7-[[(2R,8S)-2-fluoro-1,2,3,5,6,7-hexahydropyrrolizin-8-yl]methoxy]-9-[3-(3-hydroxypropyl)-3,8-diazabicyclo[3.2.1]octan-8-yl]-2-methyl-pyrazolo[4,3-f]quinazolin-4-yl]naphthalen-2-ol]",≤ 10,100 to 10000,–,–
CCc1c(F)ccc2cc(O)cc(-c3c(C)c4nc(OC[C@@]56CCCN5C[C@H](F)C6)nc(N5CCCn6nc(COC)cc6C5)c4c4cn(C)nc34)c12 [Example 243],≤ 10,≤ 10,–,–
"CCc1c(F)ccc2cc(O)cc(-c3c(C)c4nc(OCC5(CO)CC5)nc(N5CC6CCC(C5)N6)c4c4cn(C)nc34)c12 [Example 242, 4-[9-(3,8-diazabicyclo[3.2.1]octan-3-yl)-7-[[1-(hydroxymethyl)cyclopropyl]methoxy]-2,5-dimethyl-pyrazolo[4,3-f]quinazolin-4-yl]-5-ethyl-6-fluoro-naphthalen-2-ol]",≤ 10,100 to 10000,–,–
"CCc1c(F)ccc2cc(O)cc(-c3cc4nc(OC[C@@]56CCCN5C[C@H](F)C6)nc(N5CC6CCC(C5)N6CC(C)O)c4c4cn(C)nc34)c12 (stereo partly drawn) [Example 186, 5-ethyl-6-fluoro-4-[7-[[(2R,8S)-2-fluoro-1,2,3,5,6,7-hexahydropyrrolizin-8-yl]methoxy]-9-[8-(2-hydroxypropyl)-3,8-diazabicyclo[3.2.1]octan-3-yl]-2-methyl-pyrazolo[4,3-f]quinazolin-4-yl]naphthalen-2-ol]",10 to 100,10 to 100,–,–
